# Biological target: T1, human TLR7 (Homo sapiens, UniProt Q9NYK1)
# T1 construct: host or cells: HEK293 (HEK-Blue hTLR7)
# T1 sequence (Q9NYK1 27-1049): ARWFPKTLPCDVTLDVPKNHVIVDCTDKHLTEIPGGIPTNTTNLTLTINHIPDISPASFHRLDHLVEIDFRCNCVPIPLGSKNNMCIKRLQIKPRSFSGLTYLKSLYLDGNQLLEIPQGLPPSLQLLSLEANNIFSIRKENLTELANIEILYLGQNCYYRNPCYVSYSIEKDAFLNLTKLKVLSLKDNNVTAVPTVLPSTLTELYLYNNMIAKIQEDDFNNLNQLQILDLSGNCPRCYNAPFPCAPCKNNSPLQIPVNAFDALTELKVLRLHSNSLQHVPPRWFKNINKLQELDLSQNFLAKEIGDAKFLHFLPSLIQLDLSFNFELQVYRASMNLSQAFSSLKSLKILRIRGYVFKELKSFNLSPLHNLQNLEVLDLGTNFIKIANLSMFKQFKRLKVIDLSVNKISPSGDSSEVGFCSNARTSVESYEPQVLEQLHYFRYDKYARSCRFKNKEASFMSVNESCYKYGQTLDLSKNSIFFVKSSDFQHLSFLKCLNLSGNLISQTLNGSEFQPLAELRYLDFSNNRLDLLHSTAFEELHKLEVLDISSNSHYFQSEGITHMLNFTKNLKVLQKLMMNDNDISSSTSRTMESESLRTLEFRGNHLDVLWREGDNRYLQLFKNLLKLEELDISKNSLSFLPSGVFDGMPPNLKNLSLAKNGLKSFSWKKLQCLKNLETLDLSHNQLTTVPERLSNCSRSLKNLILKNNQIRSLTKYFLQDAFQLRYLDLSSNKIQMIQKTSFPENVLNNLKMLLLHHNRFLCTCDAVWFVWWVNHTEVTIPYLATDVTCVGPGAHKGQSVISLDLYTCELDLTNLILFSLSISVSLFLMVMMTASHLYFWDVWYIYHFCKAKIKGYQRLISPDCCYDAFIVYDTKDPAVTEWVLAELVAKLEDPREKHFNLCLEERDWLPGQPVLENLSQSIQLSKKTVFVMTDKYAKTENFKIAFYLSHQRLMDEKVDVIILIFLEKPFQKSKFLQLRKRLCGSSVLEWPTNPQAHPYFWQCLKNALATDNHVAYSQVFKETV
# Assay: HEK293-Blue-hTLR-7 cells assay (SEAP reporter, R848 stimulation)
# Format: cell-based
# Settings: HEK293-Blue-hTLR7 cells, R848, 20 hrs
# Description: The following tests were carried out in order to determine the activity of the compounds of formula (I) in HEK293-Blue-hTLR-7/8/9 cells assay.
# HEK293-Blue-hTLR-7 Cells Assay:
# A stable HEK293-Blue-hTLR-7 cell line was purchased from InvivoGen (Cat. #: hkb-htlr7, San Diego, Calif. USA). These cells were originally designed for studying the stimulation of human TLR7 by monitoring the activation of NF-κB. A SEAP (secreted embryonic alkaline phosphatase) reporter gene was placed under the control of the IFN-β minimal promoter fused to five NF-κB and AP-1-binding sites. The SEAP was induced by activating NF-κB and AP-1 via stimulating HEK-Blue hTLR7 cells with TLR7 ligands. Therefore the reporter expression was declined by TLR7 antagonist under the stimulation of a ligand, such as R848 (Resiquimod), for incubation of 20 hrs. The cell culture supernatant SEAP reporter activity was determined using QUANTI-Blue™ kit (Cat. #: rep-qbl, Invivogen, San Diego, Calif., USA) at a wavelength of 640 nm, a detection medium that turns purple or blue in the presence of alkaline phosphatase.
# HEK293-Blue-hTLR7 cells were incubated at a density of 250,000˜450,000 cells/mL in a volume of 170 μL in a 96-well plate in Dulbecco's Modified Eagle's medium (DMEM) containing 4.5 g/L glucose, 50 U/mL penicillin, […], […], 2 mM L-glutamine, 10% (v/v) heat-inactivated fetal bovine serum with addition of 20 μL A test compound in a serial dilution in the presence of final DMSO at 1% and 10 μL of 20 uM R848 in above DMEM, perform incubation under 37° C. in a CO2 incubator for 20 hrs. Then 20 μL of the supernatant from each well was incubated with 180 μQuanti-blue substrate solution at 37° C. for 2 hrs and the absorbance was read at 620˜655 nm using a spectrophotometer. The signalling pathway that TLR7 activation leads to downstream NF-κB activation has been widely accepted, and therefore similar reporter assay was modified for evaluating TLR7 antagonist.
row,Compound,IC50
1,"C[C@@H]1CN(c2ccc([N+](=O)[O-])c3ncccc23)C[C@H](C(=O)NCC2CN(C)CCO2)O1 (stereo partly drawn) [Example 18, (2R,6R)-6-methyl-N-[(4-methylmorpholin-2-yl)methyl]-4-(8-nitro-5-quinolyl)morpholine-2-carboxamide]",0.005 µM
2,"C[C@@H]1CN(c2ccc([N+](=O)[O-])c3ncccc23)C[C@H](C(=O)N[C@@H]2CNC[C@@H]2F)O1 [Example 19, cis-(2R,6R)-N-[41-fluoropyrrolidin-3-yl]-6-methyl-4-(8-nitro-5-quinolyl)morpholine-2-carboxamide]",0.014 µM
3,"C[C@@H]1CN(c2ccc([N+](=O)[O-])c3ncccc23)C[C@H](C(=O)NC2CCN(C)CC2)O1 [Example 20, (2R,6R)-6-methyl-N-(1-methyl-4-piperidyl)-4-(8-nitro-5-quinolyl)morpholine-2-carboxamide]",0.002 µM
4,"Cc1ccc(N2C[C@@H](C)O[C@@H](C(=O)N[C@@H]3CNC[C@@H]3F)C2)c2cccnc12 [Example 21, cis-(2R,6R)-N-14-fluoropyrrolidin-3-yl1-6-methyl-4-(8-methyl-5-quinolyl)morpholine-2carboxamide]",0.071 µM
5,"C[C@@H]1CN(c2ccc(Cl)c3ncccc23)C[C@H](C(=O)N[C@H]2CNC[C@H]2F)O1 [Example 22, (2R,6R)-4-(8-chloro-5-quinolyl)-N-[(3S,4R)-4-fluoropyrrolidin-3-yl]-6-methyl-morpholine-2-carboxamide]",0.039 µM
6,"C[C@H]1C[C@@H](N)CN(c2ccc(Cl)c3ncccc23)C1 [Example 23, (3R,5S)-1-(8-chloro-5-quinolyl)-5-methyl-piperidin-3-amine]",0.007 µM
7,"C[C@@H]1CN(c2ccc(Cl)c3ncccc23)C[C@H](C(=O)NC2CCN(C)CC2)O1 [Example 24, (2R,6R)-4-(8-chloro-5-quinolyI)-6-methyl-N-(1-methyl-4-piperidyl)morpholine-2-carboxamide]",0.015 µM
8,"C[C@@H]1CN(c2ccc(Cl)c3ncccc23)C[C@H](C(=O)NC2CCCNCC2)O1 (stereo partly drawn) [Example 25, (2R,6R)-N-(azepan-4-yl)-4-(8-chloro-5-quinolyl)-6-methyl-morpholine-2-carboxamide]",0.012 µM
9,"C[C@@H]1CN(c2ccc(Cl)c3ncccc23)C[C@H](C(=O)NCC2CN(C)CCO2)O1 (stereo partly drawn) [Example 26, (2R,6R)-4-(8-chloro-5-quinolyl)-6-methyl-N-[(4-methylmorpholin-2-yl)methyl]morpholine-2-carboxamide]",0.023 µM
10,"C[C@@H]1CN(c2ccc(C(F)(F)F)c3ncccc23)C[C@H](C(=O)NC[C@@H]2C[C@@H](F)CN2)O1 [Example 27, (2R,6R)-N-[[(2S,4R)-4-fluoropyrrolidin-2-yl]methyl]-6-methyl-4-[8-(trifluoromethyl)-5-quinolyl]morpholine-2-carboxamide]",0.06 µM
11,"C[C@@H]1CN(c2ccc(C(F)(F)F)c3ncccc23)C[C@H](C(=O)NC2CNCC(F)(F)C2)O1 (stereo partly drawn) [Example 28, (2R,6R)-N-(5,5-difluoro-3-piperidyl)-6-methyl-4-[8-(trifluoromethyl)-5-quinolyl]morpholine-2-carboxamide]",0.2 µM
12,"C[C@@H]1CN(c2ccc(C(F)(F)F)c3ncccc23)C[C@H](C(=O)NCC2CNCC2(F)F)O1 (stereo partly drawn) [Example 29, (2R,6R)-N-[(4,4-difluoropyrrolidin-3-yl)methyl]-6-methyl-4-[8-(trifluoromethyl)-5-quinolyl]morpholine-2-carboxamide]",0.037 µM
13,C[C@@H]1CN(c2ccc(C(F)(F)F)c3ncccc23)C[C@H](C(=O)NC[C@@H]2CC(F)(F)CN2)O1 [Example 30],0.37 µM
14,"C[C@@H]1CN(c2ccc(C(F)(F)F)c3ncccc23)C[C@H](C(=O)NC2C3CCC2CNC3)O1 (stereo partly drawn) [Example 31, (2R,6R)-N-(3-azabicyclo[3.2.1]octan-8-yl)-6-methyl-4-[8-(trifluoromethyl)-5-quinolyl]morpholine-2-carboxamide]",0.005 µM
15,"C[C@@H]1CN(c2ccc(C(F)(F)F)c3ncccc23)C[C@H](C(=O)N2CCC3(CCNCC3)CC2)O1 [Example 32, 3,9-diazaspiro[5.5]undecan-3-yl-[(2R,6R)-6-methyl-4-[8-(trifluoromethyl)-5-quinolyl]morpholin-2-yl]methanone]",0.078 µM
16,"C[C@@H]1CN(c2ccc(C(F)(F)F)c3ncccc23)C[C@H](C(=O)NC2CC3COCC(C2)N3)O1 (stereo partly drawn) [Example 33, (2R,6R)-6-methyl-N-(3-oxa-9-azabicyclo[3.3.1]nonan-7-yl)-4-[8-(trifluoromethyl)-5-quinolyl]morpholine-2-carboxamide]",0.002 µM
17,C[C@@H]1CN(c2ccc(C(F)(F)F)c3ncccc23)C[C@H](C(=O)N2CCC3(CCNC3)C2)O1 (some centres unmarked) [Example 36],0.13 µM
18,"C[C@@H]1CN(c2ccc(C(F)(F)F)c3ncccc23)C[C@H](C(=O)NC2CC3CNCC(C3)C2)O1 (stereo partly drawn) [Example 37, (2R,6R)-N-(3-azabicyclo[3.3.1]nonan-7-yl)-6-methyl-4-[8-(trifluoromethyl)-5-quinolyl]morpholine-2-carboxamide]",0.002 µM
19,"C[C@@H]1CN(c2ccc(I)c3ncccc23)C[C@H](C(=O)NC2CCN(C)CC2)O1 [Example 38, (2R,6R)-4-(8-iodo-5-quinolyl)-6-methyl-N-(1-methyl-4-piperidyl)morpholine-2-carboxamide]",0.003 µM
20,"C[C@@H]1CN(c2ccc(I)c3ncccc23)C[C@H](C(=O)NCC2CN(C)CCO2)O1 (stereo partly drawn) [Example 39, (2R,6R)-4-(8-iodo-5-quinolyl)-6-methyl-N-[(4-methylmorpholin-2-yl)methyl]morpholine-2-carboxamide]",0.007 µM
21,"C[C@@H]1CN(c2ccc(I)c3ncccc23)C[C@H](C(=O)NC2CNCC2F)O1 (stereo partly drawn) [Example 40, cis-(2R,6R)-N-[4-fluoropyrrolidin-3-yl]-4-(8-iodo-5-quinolyl)-6-methyl-morpholine-2-carboxamide]",0.015 µM
22,"C[C@@H]1CN(c2ccc(Br)c3ncccc23)C[C@H](C(=O)NC2CNCC2F)O1 (stereo partly drawn) [Example 41, cis-(2R,6R)-4-(8-bromo-5-quinolyl)-N-[4-fluoropyrrolidin-3-yl]-6-methyl-morpholine-2-carboxamide]",0.015 µM
23,"C[C@@H]1CN(c2ccc(Br)c3ncccc23)C[C@H](C(=O)NC2CCN(C)CC2)O1 [Example 42, (2R,6R)-4-(8-bromo-5-quinolyl)-6-methyl-N-(1-methyl-4-piperidyl)morpholine-2-carboxamide]",0.005 µM
24,"C#Cc1ccc(N2C[C@@H](C)O[C@@H](C(=O)NC3CCN(C)CC3)C2)c2cccnc12 [Example 43, (2R,6R)-4-(8-ethynyl-5-quinolyl)-6-methyl-N-(1-methyl-4-piperidyl)morpholine-2-carboxamide]",0.01 µM
25,C[C@@H]1CN(c2ccc(C(F)(F)F)c3ncccc23)C[C@H](C(=O)NC2C[C@H]3C[C@@H]2CN3)O1 (some centres unmarked) [Example 44],0.018 µM
26,"C[C@@H]1CN(c2ccc(C(F)(F)F)c3ncccc23)C[C@H](C(=O)NC2C3CCCC2CNC3)O1 (stereo partly drawn) [Example 45, (2R,6R)-N-(3-azabicyclo[3.3.1]nonan-9-yl)-6-methyl-4-[8-(trifluoromethyl)-5-quinolyl]morpholine-2-carboxamide]",< 0.003 µM

# — US20220363665A1, “QUINOLINE COMPOUNDS FOR THE TREATMENT OF AUTOIMMUNE DISEASE” (Hoffmann-La Roche Inc., priority 2019, published 2022)
